In the oligonucleotide strings, read from the 5' end, every base follows the letter of its sugar. An asterisk marks phosphorothioate; unmarked linkages are phosphodiester. Other units and linkages are bracketed, terminal groups are in braces. A string of capitals states the bases alone. e = 2'-O-(2-methoxyethyl) (MOE); [5mC] = 5-methylcytosine
Legend:
Type in all cases: cell-based, human
Glut4 = Glut4 mRNA expression in adipocytes (real-time PCR)
aP2 = aP2 mRNA expression in adipocytes (real-time PCR); conditions: for aP2 mRNA: Table 75
HSL = HSL mRNA expression in adipocytes (real-time PCR)
PPARγ = PPARγ mRNA expression in adipocytes (real-time PCR)
adipocytes = experiment: Triglyceride accumulation assay in adipocytes
[1] = differentiating adipocytes transfected with oligomeric compound, Table 75
[2] = differentiating adipocytes transfected with oligomeric compound
[3] = Table 17, differentiating adipocytes, control = treatment with ISIS 342673
[4] = Table 18, differentiating adipocytes, control = treatment with ISIS 342673

344268 (antisense ACACAAAUUCGGUUCUACAGGG; all 2'-MOE, all phosphorothioate, methylation of C and T or U not given here) [compound 344268]
GLUT4 mRNA (Glut4; [1]): 22 percentage of untreated control (UTC) | aP2 mRNA (aP2; [2]): 46 percentage of untreated control (UTC) | HSL mRNA (HSL; [1]): 44 percentage of untreated control (UTC) | PPAR gamma mRNA (PPARγ; [1]): 53 percentage of untreated control (UTC) | TG (triglyceride accumulation) (adipocytes; [1]): 57 percentage of untreated control (UTC)

327970 (antisense eA*e[5mC]*eA*eA*eA*eG*eT*eT*e[5mC]*eT*eG*eT*eA*eG*eT*eG*e[5mC]*eA*e[5mC]*eT*eG*eA) [compound 327970]
GLUT4 mRNA (Glut4; [1]): 27 percentage of untreated control (UTC) | aP2 mRNA (aP2; [2]): 29 percentage of untreated control (UTC) | HSL mRNA (HSL; [1]): 25 percentage of untreated control (UTC) | PPAR gamma mRNA (PPARγ; [1]): 46 percentage of untreated control (UTC) | TG (triglyceride accumulation) (adipocytes; [1]): 48 percentage of untreated control (UTC)

346910 (GCAAUCAGCUAACUACACUGCCU; all 2'-MOE, all phosphorothioate, methylation of C and T or U not given here) [compound 346910]
GLUT4 mRNA (Glut4; [1]): 63 percentage of untreated control (UTC) | aP2 mRNA (aP2; [2]): 78 percentage of untreated control (UTC) | HSL mRNA (HSL; [1]): 69 percentage of untreated control (UTC) | PPAR gamma mRNA (PPARγ; [1]): 83 percentage of untreated control (UTC) | TG (triglyceride accumulation) (adipocytes; [1]): 80 percentage of untreated control (UTC)

328120 (antisense eA*eA*eG*eA*eA*eG*eG*eA*eA*eG*eG*eA*eG*eG*eG*eA*eA*eA*eG*e[5mC]*eA) [compound 328120]
GLUT4 mRNA (Glut4; [3]): 94.8 percentage of control | GLUT4 mRNA (Glut4; [1]): 68 percentage of untreated control (UTC) | AP2 mRNA (aP2; [3]): 81.0 percentage of control | aP2 mRNA (aP2; [2]): 80 percentage of untreated control (UTC) | HSL mRNA (HSL; [3]): 77.7 percentage of control | HSL mRNA (HSL; [1]): 67 percentage of untreated control (UTC) | PPAR gamma mRNA (PPARγ; [3]): 70.5 percentage of control | PPAR gamma mRNA (PPARγ; [1]): 73 percentage of untreated control (UTC) | TG (triglyceride accumulation) (adipocytes; [3]): 82.7 percentage of control | TG (triglyceride accumulation) (adipocytes; [1]): 80 percentage of untreated control (UTC)

328100 (antisense eA*eA*eT*e[5mC]*eT*e[5mC]*eT*eG*e[5mC]*eA*eG*eG*e[5mC]*eA*eA*eA*eT*eG*eT*eG*eA) [compound 328100]
GLUT4 mRNA (Glut4; [4]): 74.2 percentage of control | GLUT4 mRNA (Glut4; [1]): 39 percentage of untreated control (UTC) | AP2 mRNA (aP2; [4]): 61.9 percentage of control | aP2 mRNA (aP2; [2]): 47 percentage of untreated control (UTC) | HSL mRNA (HSL; [4]): 72.0 percentage of control | HSL mRNA (HSL; [1]): 49 percentage of untreated control (UTC) | PPAR gamma mRNA (PPARγ; [4]): 66.7 percentage of control | PPAR gamma mRNA (PPARγ; [1]): 48 percentage of untreated control (UTC) | TG (triglyceride accumulation) (adipocytes; [4]): 71.5 percentage of control | TG (triglyceride accumulation) (adipocytes; [1]): 20 percentage of untreated control (UTC)

346686 (CUUCAGUUAUCACAGUACUGUA; all 2'-MOE, all phosphorothioate, methylation of C and T or U not given here) [compound 346686]
GLUT4 mRNA (Glut4; [1]): 73 percentage of untreated control (UTC) | aP2 mRNA (aP2; [2]): 83 percentage of untreated control (UTC) | HSL mRNA (HSL; [1]): 80 percentage of untreated control (UTC) | PPAR gamma mRNA (PPARγ; [1]): 83 percentage of untreated control (UTC) | TG (triglyceride accumulation) (adipocytes; [1]): 73 percentage of untreated control (UTC)

340352 (antisense CACAAGAUCGGAUCUACGGGUU; all 2'-MOE, all phosphorothioate, methylation of C and T or U not given here) [compound 340352]
GLUT4 mRNA (Glut4; [1]): 97 percentage of untreated control (UTC) | aP2 mRNA (aP2; [2]): 107 percentage of untreated control (UTC) | HSL mRNA (HSL; [1]): 123 percentage of untreated control (UTC) | PPAR gamma mRNA (PPARγ; [1]): 102 percentage of untreated control (UTC) | TG (triglyceride accumulation) (adipocytes; [1]): 110 percentage of untreated control (UTC)

328107 (antisense e[5mC]*eT*eG*eT*eG*eA*e[5mC]*eT*eT*e[5mC]*eT*e[5mC]*eT*eA*eT*e[5mC]*eT*eG*e[5mC]*e[5mC]*eT) [compound 328107]
GLUT4 mRNA (Glut4; [4]): 72.5 percentage of control | GLUT4 mRNA (Glut4; [1]): 52 percentage of untreated control (UTC) | AP2 mRNA (aP2; [4]): 67.5 percentage of control | aP2 mRNA (aP2; [2]): 68 percentage of untreated control (UTC) | HSL mRNA (HSL; [4]): 61.0 percentage of control | HSL mRNA (HSL; [1]): 55 percentage of untreated control (UTC) | PPAR gamma mRNA (PPARγ; [4]): 79.3 percentage of control | PPAR gamma mRNA (PPARγ; [1]): 71 percentage of untreated control (UTC) | TG (triglyceride accumulation) (adipocytes; [4]): 66.7 percentage of control | TG (triglyceride accumulation) (adipocytes; [1]): 51 percentage of untreated control (UTC)

328134 (eA*eA*eT*eT*eG*eG*eA*e[5mC]*eA*eA*eA*eG*eT*eG*e[5mC]*e[5mC]*eT*eT*eT*e[5mC]*eA; anti-miR) [compound 328134]
GLUT4 mRNA (Glut4; [3]): 88.3 percentage of control | GLUT4 mRNA (Glut4; [1]): 109 percentage of untreated control (UTC) | AP2 mRNA (aP2; [3]): 80.1 percentage of control | aP2 mRNA (aP2; [2]): 97 percentage of untreated control (UTC) | HSL mRNA (HSL; [3]): 74.7 percentage of control | HSL mRNA (HSL; [1]): 109 percentage of untreated control (UTC) | PPAR gamma mRNA (PPARγ; [3]): 78.4 percentage of control | PPAR gamma mRNA (PPARγ; [1]): 86 percentage of untreated control (UTC) | TG (triglyceride accumulation) (adipocytes; [3]): 85.7 percentage of control | TG (triglyceride accumulation) (adipocytes; [1]): 107 percentage of untreated control (UTC)

344343 (AUGCCCUUUCAUCAUUGCACUG; anti-miR; all 2'-MOE, all phosphorothioate, methylation of C and T or U not given here) [compound 344343]
GLUT4 mRNA (Glut4; [1]): 4 percentage of untreated control (UTC) | aP2 mRNA (aP2; [2]): 25 percentage of untreated control (UTC) | HSL mRNA (HSL; [1]): 22 percentage of untreated control (UTC) | PPAR gamma mRNA (PPARγ; [1]): 30 percentage of untreated control (UTC) | TG (triglyceride accumulation) (adipocytes; [1]): 32 percentage of untreated control (UTC)

344615 (UCAACAAAAUCACUGAUGCUGGA; anti-miR; all 2'-MOE, all phosphorothioate, methylation of C and T or U not given here) [compound 344615]
GLUT4 mRNA (Glut4; [1]): 145 percentage of untreated control (UTC) | aP2 mRNA (aP2; [2]): 166 percentage of untreated control (UTC) | HSL mRNA (HSL; [1]): 154 percentage of untreated control (UTC) | PPAR gamma mRNA (PPARγ; [1]): 144 percentage of untreated control (UTC) | TG (triglyceride accumulation) (adipocytes; [1]): 149 percentage of untreated control (UTC)

328091 (antisense eG*e[5mC]*eT*eG*e[5mC]*e[5mC]*eG*eT*eA*eT*eA*eT*eG*eT*eG*eA*eT*eG*eT*e[5mC]*eA) [compound 328091]
GLUT4 mRNA (Glut4; [1]): 26 percentage of untreated control (UTC) | aP2 mRNA (aP2; [2]): 46 percentage of untreated control (UTC) | HSL mRNA (HSL; [1]): 40 percentage of untreated control (UTC) | PPAR gamma mRNA (PPARγ; [1]): 85 percentage of untreated control (UTC) | TG (triglyceride accumulation) (adipocytes; [1]): 48 percentage of untreated control (UTC)

344269 (antisense UAACCGAUUUCAAAUGGUGCUA; all 2'-MOE, all phosphorothioate, methylation of C and T or U not given here) [compound 344269]
GLUT4 mRNA (Glut4; [1]): 28 percentage of untreated control (UTC) | aP2 mRNA (aP2; [2]): 41 percentage of untreated control (UTC) | HSL mRNA (HSL; [1]): 35 percentage of untreated control (UTC) | PPAR gamma mRNA (PPARγ; [1]): 48 percentage of untreated control (UTC) | TG (triglyceride accumulation) (adipocytes; [1]): 42 percentage of untreated control (UTC)

328099 (antisense eA*eA*eG*eA*eA*e[5mC]*eA*eT*eT*eA*eA*eG*e[5mC]*eA*eT*e[5mC]*eT*eG*eA*e[5mC]*eA) [compound 328099]
GLUT4 mRNA (Glut4; [4]): 86.8 percentage of control | GLUT4 mRNA (Glut4; [1]): 61 percentage of untreated control (UTC) | AP2 mRNA (aP2; [4]): 85.9 percentage of control | aP2 mRNA (aP2; [2]): 80 percentage of untreated control (UTC) | HSL mRNA (HSL; [4]): 88.4 percentage of control | HSL mRNA (HSL; [1]): 74 percentage of untreated control (UTC) | PPAR gamma mRNA (PPARγ; [4]): 81.9 percentage of control | PPAR gamma mRNA (PPARγ; [1]): 72 percentage of untreated control (UTC) | TG (triglyceride accumulation) (adipocytes; [4]): 93.9 percentage of control | TG (triglyceride accumulation) (adipocytes; [1]): 57 percentage of untreated control (UTC)

341791 (antisense GCUUCCAGUCGAGGAUGUUUACA; all 2'-MOE, all phosphorothioate, methylation of C and T or U not given here) [compound 341791]
GLUT4 mRNA (Glut4; [1]): 47 percentage of untreated control (UTC) | aP2 mRNA (aP2; [2]): 80 percentage of untreated control (UTC) | HSL mRNA (HSL; [1]): 72 percentage of untreated control (UTC) | PPAR gamma mRNA (PPARγ; [1]): 75 percentage of untreated control (UTC) | TG (triglyceride accumulation) (adipocytes; [1]): 50 percentage of untreated control (UTC)

328112 (antisense eA*eT*e[5mC]*eA*eT*eT*eA*e[5mC]*eT*eG*eG*eA*eT*eT*eG*e[5mC]*eT*eG*eT*eA*eA) [compound 328112]
GLUT4 mRNA (Glut4; [4]): 122.5 percentage of control | GLUT4 mRNA (Glut4; [2]): 97 percentage of untreated control (UTC) | AP2 mRNA (aP2; [4]): 99.1 percentage of control | AP2 mRNA (aP2; [2]): 73 percentage of untreated control (UTC) | HSL mRNA (HSL; [4]): 101.2 percentage of control | HSL mRNA (HSL; [2]): 89 percentage of untreated control (UTC) | PPAR gamma mRNA (PPARγ; [4]): 102.4 percentage of control | PPAR gamma mRNA (PPARγ; [2]): 79 percentage of untreated control (UTC) | TG (triglyceride accumulation) (adipocytes; [4]): 98.1 percentage of control | TG (triglyceride accumulation) (adipocytes; [2]): 92 percentage of untreated control (UTC)

Source: patent US8178506B2, “Oligomeric compounds and compositions for use in modulation of small non-coding RNAs” (Regulus Therapeutics Inc., priority 2003, dated 2012)
